Test results published in patent US20140221372A1, “METHOD OF ADMINISTRATION AND TREATMENT” (GlaxoSmithKline Intellectual Property (NO 2.) Limited, priority 2013, published 2014).
Where “and” joins values, the source holds several entries; their conditions need not be identical. Equal entries are not always repeated.

Legend:
Type in all cases: in vivo, human
[1] = test system: hepatocellular cancer (HCC) subjects; assay: Pharmacogenetic analysis: association of genetic variants with TTP and OS in Asian HCC subjects receiving foretinib; conditions: foretinib 30 mg QD; for Median TTP: (95% CI)
Experimental: Asian HCC subjects treated with the maximum tolerated dose (MTD) of 30 mg QD and provided informed consent and blood sample for PGx research (n=31 of 39 subjects treated) were selected for PGx analysis. Of the 31 subjects who provided consent, 28 subjects were evaluable for objective response rate (ORR) and 30 for time to progression (TTP) and overall survival (OS).
Venous blood was collected from each PGx consented subject into an ethylenediaminetetraacetic acid (EDTA) vacutainer for PGx analysis. DNA was extracted using the Qiagen Autopure automated DNA extraction by Covance (Indianapolis, Ind., USA) and was genotyped for 20 single nucleotide polymorphisms (SNPs) with potential functional consequence from 13 candidate genes. The list of the genetic variants including their unique identifier (rs ID) and allele frequency in Asian population is included in Table 1. Genotyping of the SNPs was done via Sanger sequencing, or using custom TaqMan® SNP genotyping assays (Applied Biosystems, Foster City, Calif., USA) internally at GlaxoSmithKline or via TaqMan® custom or Assay on Demand genotyping assays (Applied Biosystems, Foster City, Calif., USA) by Gen-Probe (Wythenshawe, Manchester, UK).
Association with ORR was evaluated using Fisher's Exact Test (FET). Association with TTP and OS was tested using time-to-event (progression) models, using the Score (log rank) test. Since one of the haplotypes CAT (a unique combination of ‘C’, ‘A’, and ‘T’ alleles of SNPs—rs2307424, rs2307418, and rs4073054, respectively) in gene NR1I3/CAR (nuclear receptor subfamily 1, group I, member 3/constitutive androstane receptor) was previously reported to be associated with worse progression-free survival in sunitinib-treated renal cell carcinoma subjects (Van der Veldt 2011), the 3 SNPs in NR1I3 (were analyzed separately and together as a haplotype for association with clinical endpoints (see Tables 1 and 2). Similarly, the 3 SNPs in ABCB1 (ATP-binding cassette, subfamily B, member 1) were also analyzed separately and together as a haplotype.
Because of the limited sample size of the study, genetic analyses were performed without adjustment for baseline demographics or potential covariates, and p-values were not adjusted for multiple testing.

[2] = test system: CAF (Cytokine and Angiogenic Factor) levels; assay: Circulating pharmacodynamic markers: CAF time course, percent change from baseline (Searchlight platform)
Experimental: (§1) Blood was collected at baseline (Day 1) and post treatment with 30 mg/daily of foretinib on Days 8, 15, and 22. CAF (Cytokine and Angiogenic Factor) levels were determined. CAF levels were determined by using the Searchlight platform (Aushon Biosciences). Levels of circulating sMET and HGF were determined using Meso Scale Discovery Platform (Don Bottaro, National Cancer Institute [NCI]). The biomarker analysis population was predefined to include patients who met the following criteria: • Patient is in a 30 mg cohort. • Pharmacodynamic (PD)-sample data available at baseline and for at least 1 post-baseline timepoint, and • Patient received at least 75% of planned doses up to time of last PD sample. CAF percent changes from baseline were assessed for each CAF, at each time point, for available data in the biomarker population, using the Wilcoxon Signed Rank Test.

[3] = test system: hepatocellular carcinoma patients; assay: Association between baseline (Day 1) CAF levels and TTP / OS in patients on foretinib
Experimental: Blood was collected at baseline (Day 1) and post treatment with 30 mg/daily of foretinib on Days 8, 15, and 22. CAF (Cytokine and Angiogenic Factor) levels were determined. CAF levels were determined by using the Searchlight platform (Aushon Biosciences). Levels of circulating sMET and HGF were determined using Meso Scale Discovery Platform (Don Bottaro, National Cancer Institute [NCI]).
The biomarker analysis population was predefined to include patients who met the following criteria: • Patient is in a 30 mg cohort. • Pharmacodynamic (PD)-sample data available at baseline and for at least 1 post-baseline timepoint, and • Patient received at least 75% of planned doses up to time of last PD sample.
Association between day 1 CAF levels and TTP was assessed using univariate and multivariate (covariate adjusted) proportional hazards regression analysis. CAF data were transformed (log2) where appropriate.
Association between day 1 CAF levels and OS was assessed using univariate and multivariate (covariate adjusted) proportional hazards regression analysis. CAF data were transformed (log2) where appropriate. For statistically significant CAF's in the OS statistical models, a combined model of the significant CAF's will be explored, in which an optimal predictive combination of the CAF's (including optimal cutoffs) will be investigated. The method employed to explore the CAF's will depend upon the number of significant CAF's, and will be described in the results section.

sMET = assay: Circulating sMET level, percent change from baseline (Meso Scale Discovery Platform); conditions: Day 8, 30 mg/daily
Experimental: as §1

COc1cc2c(Oc3ccc(NC(=O)C4(C(=O)Nc5ccc(F)cc5)CC4)cc3F)ccnc2cc1OCCCN1CCOCC1 [foretinib]
Median TTP ([1]; ABCB1 rs1045642 TC or TT genotype): 8 months and 8.21 (2.17-NE) months
median OS ([1]; NR1I3 CAT/CAT): 5.9 months
Median TTP ([1]; NR1I3 CAT/− or −/− (1 or no copy, other haplotypes)): 6.21 (2.96-NE) months
Median TTP ([1]; NR1I3 haplotype CAT/CAT (2 copies)): 1.92 (1.51-NE*) months
median OS ([1]; NR1I3 other haplotypes): 8.5 months
Clusterin Percent Change from baseline ([2]; Day 8, 30 mg/daily): 25%
FASL Percent Change from baseline ([2]; Day 8, 30 mg/daily): 26%
GCSF Percent Change from baseline ([2]; Day 8, 30 mg/daily): 46%
IGFBP3 Percent Change from baseline ([2]; Day 8, 30 mg/daily): 19%
IL6 Percent Change from baseline ([2]; Day 8, 30 mg/daily): 58%
PLGF Percent Change from baseline ([2]; Day 8, 30 mg/daily): 105%
TRAIL Percent Change from baseline ([2]; Day 8, 30 mg/daily): 25%
TSP2 Percent Change from baseline ([2]; Day 8, 30 mg/daily): −14%
VCAM1 Percent Change from baseline ([2]; Day 8, 30 mg/daily): 28%
VEGF Percent Change from baseline ([2]; Day 8, 30 mg/daily): 61%
ANG2 Percent Change from baseline ([2]; Day 15, 30 mg/daily): −24%
FASL Percent Change from baseline ([2]; Day 15, 30 mg/daily): 20%
IGFBP3 Percent Change from baseline ([2]; Day 15, 30 mg/daily): 13%
IL6 Percent Change from baseline ([2]; Day 15, 30 mg/daily): 124%
IL8 Percent Change from baseline ([2]; Day 15, 30 mg/daily): 20%
PLGF Percent Change from baseline ([2]; Day 15, 30 mg/daily): 130%
SCF Percent Change from baseline ([2]; Day 15, 30 mg/daily): −14%
TRAIL Percent Change from baseline ([2]; Day 15, 30 mg/daily): 17%
TSP2 Percent Change from baseline ([2]; Day 15, 30 mg/daily): −19%
VCAM1 Percent Change from baseline ([2]; Day 15, 30 mg/daily): 43%
VEGF Percent Change from baseline ([2]; Day 15, 30 mg/daily): 83%
VEGFR2 Percent Change from baseline ([2]; Day 15, 30 mg/daily): −21%
ANG2 Percent Change from baseline ([2]; Day 22, 30 mg/daily): −17%
Clusterin Percent Change from baseline ([2]; Day 22, 30 mg/daily): 23%
FASL Percent Change from baseline ([2]; Day 22, 30 mg/daily): 44%
IGFBP3 Percent Change from baseline ([2]; Day 22, 30 mg/daily): 17%
IL6 Percent Change from baseline ([2]; Day 22, 30 mg/daily): 111%
PLGF Percent Change from baseline ([2]; Day 22, 30 mg/daily): 120%
TRAIL Percent Change from baseline ([2]; Day 22, 30 mg/daily): 24%
VCAM1 Percent Change from baseline ([2]; Day 22, 30 mg/daily): 64%
VEGF Percent Change from baseline ([2]; Day 22, 30 mg/daily): 83%
VEGFR2 Percent Change from baseline ([2]; Day 22, 30 mg/daily): −21%
longer TTP, lower vs higher levels of IL6 ([3]; median split of baseline IL6 levels, 30 mg cohort): ~6.7 month
deaths ([3]; patients in the highest quartile of baseline IL6): 10/10
deaths ([3]; patients in the highest quartile of baseline IL8): 9/10
deaths ([3]; patients in the lowest quartiles of baseline IL6 and IL8 (all patients censored)): 0/9
TTP ([3]; patients with higher baseline levels of IL6 (median split), 30 mg cohort): 2.9 months
TTP ([3]; patients with lower baseline levels of IL6 (median split), 30 mg cohort): 9.6 months
median survival ([3]; patients with unfavorable levels of IL6 and IL8 (group 1 in FIG. 6)): 6 months
sMET Percent Change from baseline (sMET): 12%
